Values quoted from earlier work as cited in PMC5598522 (Toxicology Reports, 2014).

Tests used:
[1] = cited from earlier work
[2] = Wistar rats; cited from earlier work
[3] = tested on: rats; conditions: cited from earlier work

COC(=O)[C@H](c1ccccc1Cl)N1CCc2sccc2C1 [Clopidogrel]
Tumor incidences in 2 year carcinogenicity bioassay [1]: did not alter tumor incidences

CC(C)C[C@H]1C(=O)N2CCC[C@H]2[C@]2(O)O[C@](NC(=O)[C@@H]3C=C4c5cccc6[nH]c(Br)c(c56)C[C@H]4N(C)C3)(C(C)C)C(=O)N12 [bromocriptine]
Weight gain [2]: inhibited weight gain | Uterine and mammary tumors [3]: increases uterine and decreases mammary tumors only in rats
